Test results published in ChEMBL document CHEMBL1201862, “PubChem BioAssay data set” (2004).
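The compound was tested at five concentrations on cells cultured in 96-well plates, with a 48-hour exposure period. GI50: concentration for 50% inhibition of growth.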 The source made the active and inactive calls. Rule as the data show it: active = GI50 up to about 1.1 µM and inactive = higher.

Tests used:
Assay in all cases: NCI anticancer screen, dose series, 48 h
HOP-92 = test system: HOP-92
SK-MEL-28 = test system: SK-MEL-28
UACC-62 = test system: UACC-62
MDA-MB-435 = test system: MDA-MB-435
NCI-H460 = test system: NCI-H460
EKVX = test system: EKVX
Hs-578T = test system: Hs-578T
NCI-H226 = test system: NCI-H226
RPMI-8226 = test system: RPMI-8226
SF-539 = test system: SF-539
ACHN = test system: ACHN
SNB-19 = test system: SNB-19
SR = test system: SR
SW-620 = test system: SW-620
786-0 = test system: 786-0
NCI/ADR-RES = test system: NCI/ADR-RES
OVCAR-8 = test system: OVCAR-8
SNB-75 = test system: SNB-75
T47D = test system: T47D

Measured: GI50

Cc1ccc(N/C(Sc2ccccc2)=C(/C(Cl)=C(Cl)Cl)[N+](=O)[O-])c(C)c1
inactive: HOP-92 14 µM | SK-MEL-28 18.5 µM | UACC-62 30.6 µM | MDA-MB-435 14.4 µM | NCI-H460 16.8 µM | EKVX 22.1 µM | Hs-578T 44.4 µM | NCI-H226 24.6 µM | RPMI-8226 20.3 µM | SF-539 21.7 µM | ACHN 32.8 µM | SNB-19 22.3 µM | SR 23.3 µM | SW-620 19.7 µM | 786-0 16.5 µM | NCI/ADR-RES 23.7 µM | OVCAR-8 34.5 µM

Cn1c(=O)n2n(c1=O)[C@@H](c1ccccc1)[C@H]2c1ccccc1
inactive: HOP-92 > 100 µM | SK-MEL-28 > 100 µM | UACC-62 > 100 µM | NCI-H460 > 100 µM | EKVX > 100 µM | Hs-578T > 100 µM | NCI-H226 > 100 µM | SF-539 > 100 µM | ACHN > 100 µM | SNB-19 > 100 µM | SR > 100 µM | SNB-75 31 µM | SW-620 > 100 µM | 786-0 > 100 µM | NCI/ADR-RES > 100 µM | OVCAR-8 > 100 µM

CCOP(=O)(OCC)/C(C#N)=C/c1cnc[nH]1
inactive: HOP-92 > 100 µM | SK-MEL-28 > 100 µM | UACC-62 > 100 µM | MDA-MB-435 > 100 µM | NCI-H460 > 100 µM | EKVX > 100 µM | Hs-578T > 100 µM | NCI-H226 > 100 µM | RPMI-8226 > 100 µM | SF-539 > 100 µM | ACHN > 100 µM | SNB-19 > 100 µM | SR > 100 µM | SNB-75 > 100 µM | SW-620 > 100 µM | 786-0 > 100 µM | NCI/ADR-RES > 100 µM | OVCAR-8 > 100 µM

O=C1c2ccccc2-n2c1nc1ccc([N+](=O)[O-])cc1c2=O
inactive: HOP-92 > 100 µM | SK-MEL-28 55.1 µM | UACC-62 44.2 µM | MDA-MB-435 > 10 µM | NCI-H460 > 100 µM | EKVX 93.1 µM | Hs-578T > 100 µM | NCI-H226 25.6 µM | RPMI-8226 25.2 µM | SF-539 > 100 µM | T47D 25.9 µM | ACHN 58.9 µM | SNB-19 > 100 µM | SR 28.8 µM | SW-620 45.1 µM | 786-0 46.5 µM | NCI/ADR-RES > 100 µM | OVCAR-8 21.3 µM
